{"source": "patent US8268961B2", "about": "“Antibacterial peptides and analogues thereof” (Universita Degli Studi di Siena, priority 2004, dated 2012)", "key": {"E. coli strain TG1": {"system": "E. coli strain TG1", "assay": "Test of antibacterial activity (colony growth inhibition) on E. coli strain TG1", "assay_type": "cell-based", "conditions": "E. coli TG1, colony counting vs control without peptide", "how_it_was_run": "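E. coli TG1 (OD600 0.2) was incubated 75 min at 37 °C with peptide in PBS at 0.12–2 mg/ml. Cells were then diluted 1:1000, plated on 2×TY agar and grown overnight at 30 °C, and colonies were counted against an untreated control.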"}, "[1]": {"system": "E. coli plasmid vector pCEP4 DNA", "assay": "DNA binding assay (gel retardation)", "procedure": "In an attempt to clarify the molecular mechanism of action, the authors examined the binding properties on DNA exerted by M6 dendrimeric peptide and magainin 2, an antimicrobial peptide which has a pore-forming activity on the cell membrane. The DNA binding abilities of M6 and magainin 2 were examined by analyzing the electrophoretic mobility of DNA bands at the various weight ratios of peptides to DNA on a 1% (w/v) agarose gel.\nGel-retardation experiments were performed by mixing 200 ng of the E. coli plasmid vector pCEP4 (Invitrogen) with increasing amounts of M6 peptide in 20 μl of binding buffer (5% glycerol, 10 mM Tris-HCl (pH 8.0), 1 mM EDTA, 1 mM DTT, 20 mM KCl and 50 μg/ml BSA). The reaction mixtures were incubated at room temperature for 1 h. Subsequently, 4 μl of native loading buffer was added (40% saccarose, 0.25% bromophenol blue) and an aliquot of 12 μl was applied to a 1% agarose gel electrophoresis in 1 mM Tris borate-EDTA buffer."}, "E. coli ATCC 25922": {"system": "E. coli ATCC 25922", "assay": "Minimal bactericidal concentration (MBC)", "assay_type": "cell-based", "procedure": "(§1) Reference strains (Escherichia coli ATCC 25922, Pseudomonas aeruginosa ATCC 27853, Staphylococus aureus ATCC 25923 and Chryseobacterium meningosepticum CCUG 4310) and several recent clinical isolates (including multidrug-resistant ones) of various species (Table 2) were used for conventional susceptibility testing experiments. Minimum Inhibitory Concentration (MIC) was determined by a standard microdilution assay as recommended by the National Commitee for Clinical Laboratory Standards (NCCLS) using cation-supplemented Mueller-Hinton (MH) broth (Oxoid Ltd. Basingstoke, UK) and a bacterial inoculum of 5×10^4 CFU per well, in a final volume of 100 μl. Results were recorded by visual inspection after 24 h of incubation at 37° C.\n(§2) The MBC was determined as recommended by the National Committee for Clinical Laboratory Standards (NCCLS) on strains of E. coli ATCC 25922 and P. aeruginosa ATCC 27853."}, "P. aeruginosa ATCC 27853": {"system": "P. aeruginosa ATCC 27853", "assay": "Minimal bactericidal concentration (MBC)", "assay_type": "cell-based", "procedure": "as §1, §2"}, "[2]": {"system": "Chryseobacterium meningosepticum CCUG4310", "assay": "MIC, standard microdilution assay", "assay_type": "cell-based", "conditions": "Chryseobacterium meningosepticum CCUG4310, reference strain", "text": "(§3) MIC is defined as the lowest concentration, in an antibiotic dilution range, that inhibits visible bacterial growth. The importance of MIC sensitivity test is based on the principle that in vitro sensitivity provides a predictive indication of the in vivo efficacy of the antibiotic therapy. Values are expressed as molar concentration and compared to MIC values obtained with commercially available antibiotics such as amikacin, ceftriaxone and levofloxacin (Table 3).\nas §1"}, "[3]": {"system": "Morganella morganii W03VA1342", "assay": "MIC, standard microdilution assay", "assay_type": "cell-based", "conditions": "Morganella morganii W03VA1342, FQR ESCR (ESBL/CTX-M-1)", "text": "as §3, §1"}, "[4]": {"system": "Stenotrophomonas maltophilia PT4/99", "assay": "MIC, standard microdilution assay", "assay_type": "cell-based", "conditions": "Stenotrophomonas maltophilia PT4/99, wild-type profile", "text": "as §3, §1"}, "[5]": {"system": "Providencia stuartii W03FI0001", "assay": "MIC, standard microdilution assay", "assay_type": "cell-based", "conditions": "Providencia stuartii W03FI0001, AGR ESCR (ESBL/PER-1)", "text": "as §3, §1"}, "[6]": {"system": "Proteus mirabilis W99FI0089", "assay": "MIC, standard microdilution assay", "assay_type": "cell-based", "conditions": "Proteus mirabilis W99FI0089, FQR", "text": "as §3, §1"}, "[7]": {"system": "Serratia marcescens W99FI0111", "assay": "MIC, standard microdilution assay", "assay_type": "cell-based", "conditions": "Serratia marcescens W99FI0111, FQR AGR ESCR (ESBL/SHV-5)", "text": "as §3, §1"}, "[8]": {"system": "Pichia pastoris yeast strain X33", "assay": "Effect on Pichia pastoris yeast colonies", "assay_type": "cell-based", "procedure": "To a volume of 50 μl of culture of Pichia pastoris grown 24 hour at 30° C. in YPD (Yeast Extract/Peptone/Dextrose) medium, 50 μl of MAP peptides (2 mg/ml) were added and left in incubation 150 min at 37° C. Subsequently, 50 μl of each incubation were plated on YPD solid medium and it was allowed to grow for 48 hours at 30° C. The number of colonies grown was compared with a control, where the yeast was not treated with the MAP."}, "[9]": {"system": "Staphylococus aureus MIU-68A", "assay_type": "cell-based, Staphylococcus aureus", "text": "as §3, §1"}}, "note": "Read-outs that look alike come from different tables or passages of the source. Positions of bridges follow the written chain, without caps; N, C: chain ends. Chains are numbered I, II in the order given. No end group written: not given here.", "data": [{"substance": "I: QKKIRVRLSAKKA-OH / II: QKKIRVRLSAK / III: QKKIRVRLSA / IV: QKKIRVRLSA (amide I:11-IV:C, I:12-II:C, II:11-III:C) [M6, QKKIRVRLSA]", "values": [{"measurement": "Antibacterial activity on E. coli TG1 colony growth", "setting": "E. coli strain TG1", "value": "good antibacterial activity"}, {"measurement": "Weight ratio of peptide to DNA at which migration of DNA is inhibited", "setting": "[1]; 200 ng pCEP4, 1% agarose gel, 1 h room temperature", "value": "> 0.2"}, {"measurement": "DNA binding tightness relative to magainin 2", "setting": "[1]; from gel retardation weight ratios", "value": "over 25 times"}, {"measurement": "MBC (minimal concentration able to kill 99.9% of the inoculum) compared with MIC", "setting": "E. coli ATCC 25922", "value": "equal to the calculated values of MIC"}, {"measurement": "MBC (minimal concentration able to kill 99.9% of the inoculum) compared with MIC", "setting": "E. coli ATCC 25922; listed as QKKIRVRLSA", "value": "equal to the corresponding MIC values"}, {"measurement": "MBC (minimal concentration able to kill 99.9% of the inoculum) compared with MIC", "setting": "P. aeruginosa ATCC 27853", "value": "equal to the calculated values of MIC"}, {"measurement": "MBC (minimal concentration able to kill 99.9% of the inoculum) compared with MIC", "setting": "P. aeruginosa ATCC 27853; listed as QKKIRVRLSA", "value": "equal to the corresponding MIC values"}, {"measurement": "MIC (Molarity)", "setting": "[2]", "value": ">49", "unit": "µM"}, {"measurement": "MIC (Molarity)", "setting": "[3]", "value": ">49", "unit": "µM"}, {"measurement": "MIC (Molarity)", "setting": "[4]", "value": ">49", "unit": "µM"}, {"measurement": "MIC (Molarity)", "setting": "[5]", "value": ">49", "unit": "µM"}, {"measurement": "MIC (Molarity)", "setting": "[6]", "value": ">49", "unit": "µM"}, {"measurement": "MIC (Molarity)", "setting": "[7]", "value": ">49", "unit": "µM"}, {"measurement": "Number of yeast colonies vs negative control", "setting": "[8]", "value": "did not differ from the negative control"}, {"measurement": "MIC (Molarity)", "setting": "[9]", "value": 49, "unit": "µM"}]}]}
